Converted amounts (≈) assume the structure as drawn. Where a SMILES comes first, the peptide text is derived from it. Bridges are numbered along the chain shown (N, C = ends). The star is where a group is joined. Octanoyl = CCCCCCCC(=O)*
Key:
[1] = system: Proteus vulgaris ATCC6897; format: cell-based; conditions: ATCC6897, pH 7
Method: Antimicrobial activity was determined by an agar dilution method using a medium consisting of Bacto-tryptone (available from Difco) (3 g/l), meat extract (1 g/l), glucose (1 g/l) and agar (16 g/l) (pH 7.0).

PLC-γ1 = target: T1, PLC-γ1 (Bos taurus, UniProt P08487); assay: PLC-inhibiting activity ([3H]PIP2 hydrolysis); format: biochemical; conditions: test peptide concentration 220 μM; PI-PLC-γ1 from bovine thymus; 37° C., 10 minutes
T1 construct: A sample of PLC-γ1 was prepared from bovine thymus; from tissue; host or cells: bovine thymus
T1 sequence (P08487 1-1291): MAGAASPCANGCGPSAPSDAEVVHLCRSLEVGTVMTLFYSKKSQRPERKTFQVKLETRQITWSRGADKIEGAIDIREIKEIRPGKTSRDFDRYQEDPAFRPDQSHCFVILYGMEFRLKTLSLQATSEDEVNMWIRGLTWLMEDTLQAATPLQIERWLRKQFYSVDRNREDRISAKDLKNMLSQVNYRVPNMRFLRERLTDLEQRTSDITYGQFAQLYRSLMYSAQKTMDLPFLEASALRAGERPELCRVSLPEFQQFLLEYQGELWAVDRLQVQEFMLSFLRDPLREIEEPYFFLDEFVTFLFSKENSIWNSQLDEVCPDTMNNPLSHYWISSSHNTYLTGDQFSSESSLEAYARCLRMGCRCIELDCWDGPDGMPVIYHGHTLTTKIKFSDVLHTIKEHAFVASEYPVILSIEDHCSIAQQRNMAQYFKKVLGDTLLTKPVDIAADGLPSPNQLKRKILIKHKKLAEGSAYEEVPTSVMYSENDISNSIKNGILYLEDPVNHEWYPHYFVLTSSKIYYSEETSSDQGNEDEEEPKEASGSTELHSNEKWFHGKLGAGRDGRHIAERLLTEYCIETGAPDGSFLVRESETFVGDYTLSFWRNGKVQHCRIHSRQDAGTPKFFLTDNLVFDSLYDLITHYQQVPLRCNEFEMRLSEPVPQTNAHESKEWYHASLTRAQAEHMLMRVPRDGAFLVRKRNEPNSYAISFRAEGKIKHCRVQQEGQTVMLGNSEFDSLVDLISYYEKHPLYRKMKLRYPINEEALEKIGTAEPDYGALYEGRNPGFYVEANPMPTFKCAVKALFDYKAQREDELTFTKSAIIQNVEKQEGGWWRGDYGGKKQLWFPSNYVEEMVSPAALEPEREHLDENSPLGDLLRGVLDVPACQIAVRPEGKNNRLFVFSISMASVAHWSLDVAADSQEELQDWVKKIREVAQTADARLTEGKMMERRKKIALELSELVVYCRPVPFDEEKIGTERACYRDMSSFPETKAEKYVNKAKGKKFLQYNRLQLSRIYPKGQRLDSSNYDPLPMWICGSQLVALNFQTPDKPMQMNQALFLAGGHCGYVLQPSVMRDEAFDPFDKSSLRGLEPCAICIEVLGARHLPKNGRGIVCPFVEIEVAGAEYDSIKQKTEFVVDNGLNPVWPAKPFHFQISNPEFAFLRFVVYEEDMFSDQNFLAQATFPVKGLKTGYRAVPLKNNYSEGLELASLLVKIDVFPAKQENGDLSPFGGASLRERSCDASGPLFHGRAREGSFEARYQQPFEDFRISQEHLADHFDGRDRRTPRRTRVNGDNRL
Method: A sample of PLC-γ1 was prepared from bovine thymus according to the method described in Y. Homma et al., Biochem.J., 269, 13 (1990).
A solution having the composition shown in Table 2 was prepared on ice and the reaction was initiated by heating it to 37° C. After incubation for 10 minutes, 2 ml of a chloroform-methanol (2:1, V/V) mixed solution was added to stop the reaction. The produced inositol phosphate was extracted with 0.5 ml of 1N hydrochloric acid. The extract was separated into two liquid phases by centrifugation (2000×g, 3 minutes) and the amount of ^3 H in the supernatant (0.7 ml) was measured with a scintillation counter. […]
Percent inhibition (X) was calculated from the following equation.
where A is the obtained value of specific radioactivity, B is the value of specific radioactivity when the same amount of water was added instead of an aqueous solution of a test peptide, and C is the value of specific radioactivity when the same amount of water was added instead of a sample and an aqueous solution of a test peptide.

KMS-4 cells = assay: Cell proliferation-inhibiting activity (BrdU incorporation); format: cell-based; conditions: test peptide concentration 6 μM, incubation for 17 hours
Method: The cell proliferation-inhibiting activity of the test peptides was determined using a cell proliferation-detecting kit available from Amersham in the following manner. KMS-4 cells (M. Nanba et al., International Journal of Cancer, 32, 697 (1983)) were added to a DMEM medium containing a 10% fetal calf serum (available from Nissui Pharmaceutical) and the cell concentration was adjusted to 1-2×10^4 cells/ml. The resulting cell suspension (1 ml) was then placed in each well of a 24-well plate (available from Corning) and incubated in a CO2 incubator (37° C., 5% CO2) for 2 days. Subsequently, the medium was replaced with a fresh DMEM medium containing a 10% fetal calf serum, and a test peptide was added, followed by incubation for 17 hours. […] The number of cells which incorporated BrdU and the total number of cells were counted within one visual field (about 200 cells) under microscopic examination and the percentage (%) of the stained cell counts per visual field was calculated. […] Cell proliferation-inhibiting activity was expressed by percent cell proliferation inhibition (X) which was calculated from the following equation. […]

SMILES: CCCCCCCC(=O)N[C@H]1CSSC[C@@H](C(N)=O)NC(=O)[C@H](C(C)C)NC(=O)[C@@H]2CCCN2C(=O)[C@H](Cc2ccc(O)cc2)NC(=O)[C@H](CCCNC(=N)N)NC(=O)[C@H](CC(C)C)NC(=O)[C@H](CCCNC(=N)N)NC(=O)[C@H](CCSC)NC(=O)[C@H](CCCCN)NC(=O)[C@H](CCCNC(=N)N)NC(=O)[C@H](Cc2ccc(O)cc2)NC(=O)[C@H](CC(C)C)NC1=O [Compound (I-4)] (Octanoyl-CLYRKMRLRYPVC-NH2; disulfide 1-13)
- minimum inhibitory concentrations (MIC) [1]: 166 µg/mL (≈ 91 µM)
- inhibition at 220 µM (PLC-γ1): 56%
- Inhibition (%) of cell proliferation (KMS-4 cells): 61%

Reference: US5847074A, “Phospholipase C-inhibiting peptides” (Kyowa Hakko Kogyo Co., Ltd., priority 1993, dated 1998)
